Measured values reported in PMC7385619, “A triple action CDK4/6-PI3K-BET inhibitor with augmented cancer cell cytotoxicity” (Cell Discovery, 2020).
Where two headings read alike, the source gives them in different places.

Legend:
Experiment in all cases: KINOMEscan assay (Eurofins DiscoverX)
Format in all cases: binding
[1] = biological target: T1, kinome (kinase panel) (Homo sapiens, UniProt O14757); details: CHEK1; 1000 nM; read-out: Percent Control
T1 construct: purchased Eurofins DiscoverX

[2] = biological target: T2, kinome (kinase panel) (Homo sapiens, UniProt O43293); details: DAPK3; 1000 nM; read-out: Percent Control
T2 construct: purchased Eurofins DiscoverX

[3] = biological target: T3, kinome (kinase panel) (Homo sapiens, UniProt O94804); details: LOK (Entrez STK10); 1000 nM; read-out: Percent Control
T3 construct: purchased Eurofins DiscoverX

[4] = biological target: T4, kinome (kinase panel) (Homo sapiens, UniProt P00519, Q252H)
T4 construct: purchased Eurofins DiscoverX

[5] = biological target: T5, kinome (kinase panel) (Homo sapiens, UniProt P00519, Y253F); details: read-out: Percent Control
T5 construct: purchased Eurofins DiscoverX

[6] = biological target: T6, kinome (kinase panel) (Homo sapiens, UniProt P04626); details: ERBB2; 1000 nM; read-out: Percent Control
T6 construct: purchased Eurofins DiscoverX

[7] = biological target: T7, kinome (kinase panel) (Homo sapiens, UniProt P10721, L576P); details: […]; 1000 nM; read-out: Percent Control
T7 construct: purchased Eurofins DiscoverX

[8] = biological target: T8, kinome (kinase panel) (Homo sapiens, UniProt P15056); details: BRAF; 1000 nM; read-out: Percent Control
T8 construct: purchased Eurofins DiscoverX

[9] = biological target: T9, kinome (kinase panel) (Homo sapiens, UniProt P27448); details: MARK3; 1000 nM; read-out: Percent Control
T9 construct: purchased Eurofins DiscoverX

[10] = biological target: T10, kinome (kinase panel) (Homo sapiens, UniProt P29322); details: EPHA8; 1000 nM; read-out: Percent Control
T10 construct: purchased Eurofins DiscoverX

[11] = biological target: T11, kinome (kinase panel) (Homo sapiens, UniProt P35968); details: VEGFR2 (KDR); 1000 nM; read-out: Percent Control
T11 construct: purchased Eurofins DiscoverX

[12] = biological target: T12, kinome (kinase panel) (Homo sapiens, UniProt P42336, I800L); details: read-out: Percent Control
T12 construct: purchased Eurofins DiscoverX

[13] = biological target: T13, kinome (kinase panel) (Homo sapiens, UniProt P42685); details: FRK; 1000 nM; read-out: Percent Control
T13 construct: purchased Eurofins DiscoverX

[14] = biological target: T14, kinome (kinase panel) (Homo sapiens, UniProt P50750); details: CDK9; 1000 nM; read-out: Percent Control
T14 construct: purchased Eurofins DiscoverX

[15] = biological target: T15, kinome (kinase panel) (Homo sapiens, UniProt P51812); details: 1000 nM, read-out: Percent Control
T15 construct: purchased Eurofins DiscoverX

[16] = biological target: T16, kinome (kinase panel) (Homo sapiens, UniProt P51817); details: PRKX; 1000 nM; read-out: Percent Control
T16 construct: purchased Eurofins DiscoverX

[17] = biological target: T17, kinome (kinase panel) (Homo sapiens, UniProt P54764); details: EPHA4; 1000 nM; read-out: Percent Control
T17 construct: purchased Eurofins DiscoverX

[18] = biological target: T18, kinome (kinase panel) (Homo sapiens, UniProt Q00526); details: CDK3; 1000 nM; read-out: Percent Control
T18 construct: purchased Eurofins DiscoverX

[19] = biological target: T19, kinome (kinase panel) (Homo sapiens, UniProt Q00532); details: CDKL1; 1000 nM; read-out: Percent Control
T19 construct: purchased Eurofins DiscoverX

[20] = biological target: T20, kinome (kinase panel) (Homo sapiens, UniProt Q13557); details: CAMK2D; 1000 nM; read-out: Percent Control
T20 construct: purchased Eurofins DiscoverX

[21] = biological target: T21, kinome (kinase panel) (Homo sapiens, UniProt Q14012); details: CAMK1; 1000 nM; read-out: Percent Control
T21 construct: purchased Eurofins DiscoverX

[22] = biological target: T22, kinome (kinase panel) (Homo sapiens, UniProt Q14289); details: PYK2 (Entrez PTK2B); 1000 nM; read-out: Percent Control
T22 construct: purchased Eurofins DiscoverX

[23] = biological target: T23, kinome (kinase panel) (Homo sapiens, UniProt Q16620); details: TRKB (NTRK2); 1000 nM; read-out: Percent Control
T23 construct: purchased Eurofins DiscoverX

[24] = biological target: T24, kinome (kinase panel) (Homo sapiens, UniProt Q8NG66); details: NEK11; 1000 nM; read-out: Percent Control
T24 construct: purchased Eurofins DiscoverX

[25] = biological target: T25, kinome (kinase panel) (Homo sapiens, UniProt Q8NI60); details: ADCK3 (Entrez CABC1); 1000 nM; read-out: Percent Control
T25 construct: purchased Eurofins DiscoverX

[26] = biological target: T26, kinome (kinase panel) (Homo sapiens, UniProt Q96D53); details: ADCK4; 1000 nM; read-out: Percent Control
T26 construct: purchased Eurofins DiscoverX

[27] = biological target: T27, kinome (kinase panel) (Homo sapiens, UniProt Q99683); details: ASK1 (Entrez MAP3K5); 1000 nM; read-out: Percent Control
T27 construct: purchased Eurofins DiscoverX

[28] = biological target: T28, kinome (kinase panel) (Homo sapiens, UniProt Q9HBH9); details: MKNK2; 1000 nM; read-out: Percent Control
T28 construct: purchased Eurofins DiscoverX

[29] = biological target: T29, kinome (kinase panel) (Homo sapiens, UniProt Q9UHD2); details: TBK1; 1000 nM; read-out: Percent Control
T29 construct: purchased Eurofins DiscoverX

[30] = biological target: T30, kinome (kinase panel) (Homo sapiens, UniProt Q9Y243); details: AKT3; 1000 nM; read-out: Percent Control
T30 construct: purchased Eurofins DiscoverX

[31] = biological target: T31, kinome (kinase panel) (Homo sapiens, UniProt Q9Y2I7); details: PIKFYVE; 1000 nM; read-out: Percent Control
T31 construct: purchased Eurofins DiscoverX

[32] = biological target: T32, kinome (kinase panel) (Homo sapiens, UniProt Q9Y6E0); details: MST3 (Entrez STK24); 1000 nM; read-out: Percent Control
T32 construct: purchased Eurofins DiscoverX

T15 sequence (P51812 whole entry): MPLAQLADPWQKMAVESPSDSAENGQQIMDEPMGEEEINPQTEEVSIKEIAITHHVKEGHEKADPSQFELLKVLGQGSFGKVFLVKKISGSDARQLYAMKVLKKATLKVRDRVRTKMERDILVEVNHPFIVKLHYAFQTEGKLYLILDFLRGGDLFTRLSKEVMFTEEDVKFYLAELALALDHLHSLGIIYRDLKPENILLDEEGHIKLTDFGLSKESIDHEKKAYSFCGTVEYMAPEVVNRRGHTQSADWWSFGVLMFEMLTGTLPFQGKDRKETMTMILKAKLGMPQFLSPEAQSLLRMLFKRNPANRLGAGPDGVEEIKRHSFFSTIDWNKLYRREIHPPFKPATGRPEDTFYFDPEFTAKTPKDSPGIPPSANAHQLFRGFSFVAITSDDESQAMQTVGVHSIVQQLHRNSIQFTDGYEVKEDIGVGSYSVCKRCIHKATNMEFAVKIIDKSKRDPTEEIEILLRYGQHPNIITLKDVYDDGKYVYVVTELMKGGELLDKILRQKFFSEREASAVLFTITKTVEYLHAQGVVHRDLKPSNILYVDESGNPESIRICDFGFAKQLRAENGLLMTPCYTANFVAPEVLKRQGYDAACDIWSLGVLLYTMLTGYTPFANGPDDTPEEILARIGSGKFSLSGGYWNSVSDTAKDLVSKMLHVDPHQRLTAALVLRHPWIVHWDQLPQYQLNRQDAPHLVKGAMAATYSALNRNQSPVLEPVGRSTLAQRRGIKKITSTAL
T16 sequence (P51817 whole entry): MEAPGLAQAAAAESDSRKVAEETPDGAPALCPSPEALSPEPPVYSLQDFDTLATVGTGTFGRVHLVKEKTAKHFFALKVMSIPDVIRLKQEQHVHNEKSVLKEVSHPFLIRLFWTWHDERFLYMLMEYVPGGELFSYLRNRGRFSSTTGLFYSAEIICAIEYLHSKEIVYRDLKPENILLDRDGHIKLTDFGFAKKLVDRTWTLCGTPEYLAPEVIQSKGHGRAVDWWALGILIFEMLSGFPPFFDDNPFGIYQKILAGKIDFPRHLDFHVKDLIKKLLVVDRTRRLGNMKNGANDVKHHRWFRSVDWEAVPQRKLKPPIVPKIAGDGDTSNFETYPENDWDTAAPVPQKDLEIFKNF
T25 sequence (Q8NI60 163-647): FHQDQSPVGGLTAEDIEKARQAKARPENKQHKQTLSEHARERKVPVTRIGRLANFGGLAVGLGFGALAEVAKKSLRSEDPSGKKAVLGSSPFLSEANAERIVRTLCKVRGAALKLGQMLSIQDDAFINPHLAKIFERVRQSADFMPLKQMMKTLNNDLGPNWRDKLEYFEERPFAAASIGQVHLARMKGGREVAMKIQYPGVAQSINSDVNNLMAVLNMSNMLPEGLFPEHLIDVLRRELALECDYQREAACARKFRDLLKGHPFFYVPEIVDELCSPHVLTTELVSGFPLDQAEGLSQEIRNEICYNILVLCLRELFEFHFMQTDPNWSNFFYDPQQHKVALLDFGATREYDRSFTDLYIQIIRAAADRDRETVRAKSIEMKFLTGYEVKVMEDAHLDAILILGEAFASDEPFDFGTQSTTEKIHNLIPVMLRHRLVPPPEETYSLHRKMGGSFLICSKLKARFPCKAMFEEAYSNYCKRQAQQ
T24 sequence (Q8NG66 whole entry): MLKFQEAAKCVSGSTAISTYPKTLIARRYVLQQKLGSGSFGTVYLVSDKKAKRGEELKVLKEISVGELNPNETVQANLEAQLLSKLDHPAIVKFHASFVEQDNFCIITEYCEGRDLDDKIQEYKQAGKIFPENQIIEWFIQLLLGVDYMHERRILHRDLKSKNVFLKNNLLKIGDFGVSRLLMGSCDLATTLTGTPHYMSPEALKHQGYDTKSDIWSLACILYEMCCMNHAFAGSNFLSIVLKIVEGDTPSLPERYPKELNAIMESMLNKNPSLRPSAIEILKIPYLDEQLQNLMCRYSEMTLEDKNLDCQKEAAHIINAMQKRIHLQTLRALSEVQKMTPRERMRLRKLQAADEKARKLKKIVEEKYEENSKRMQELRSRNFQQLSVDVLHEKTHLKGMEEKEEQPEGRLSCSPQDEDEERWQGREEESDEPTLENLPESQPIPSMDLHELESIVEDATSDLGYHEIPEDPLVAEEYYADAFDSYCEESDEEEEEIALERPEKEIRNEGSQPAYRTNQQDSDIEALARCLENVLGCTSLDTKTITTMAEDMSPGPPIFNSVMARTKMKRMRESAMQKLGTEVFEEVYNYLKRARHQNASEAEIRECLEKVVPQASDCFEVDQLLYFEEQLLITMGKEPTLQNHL
T10 sequence (P29322 28-1005): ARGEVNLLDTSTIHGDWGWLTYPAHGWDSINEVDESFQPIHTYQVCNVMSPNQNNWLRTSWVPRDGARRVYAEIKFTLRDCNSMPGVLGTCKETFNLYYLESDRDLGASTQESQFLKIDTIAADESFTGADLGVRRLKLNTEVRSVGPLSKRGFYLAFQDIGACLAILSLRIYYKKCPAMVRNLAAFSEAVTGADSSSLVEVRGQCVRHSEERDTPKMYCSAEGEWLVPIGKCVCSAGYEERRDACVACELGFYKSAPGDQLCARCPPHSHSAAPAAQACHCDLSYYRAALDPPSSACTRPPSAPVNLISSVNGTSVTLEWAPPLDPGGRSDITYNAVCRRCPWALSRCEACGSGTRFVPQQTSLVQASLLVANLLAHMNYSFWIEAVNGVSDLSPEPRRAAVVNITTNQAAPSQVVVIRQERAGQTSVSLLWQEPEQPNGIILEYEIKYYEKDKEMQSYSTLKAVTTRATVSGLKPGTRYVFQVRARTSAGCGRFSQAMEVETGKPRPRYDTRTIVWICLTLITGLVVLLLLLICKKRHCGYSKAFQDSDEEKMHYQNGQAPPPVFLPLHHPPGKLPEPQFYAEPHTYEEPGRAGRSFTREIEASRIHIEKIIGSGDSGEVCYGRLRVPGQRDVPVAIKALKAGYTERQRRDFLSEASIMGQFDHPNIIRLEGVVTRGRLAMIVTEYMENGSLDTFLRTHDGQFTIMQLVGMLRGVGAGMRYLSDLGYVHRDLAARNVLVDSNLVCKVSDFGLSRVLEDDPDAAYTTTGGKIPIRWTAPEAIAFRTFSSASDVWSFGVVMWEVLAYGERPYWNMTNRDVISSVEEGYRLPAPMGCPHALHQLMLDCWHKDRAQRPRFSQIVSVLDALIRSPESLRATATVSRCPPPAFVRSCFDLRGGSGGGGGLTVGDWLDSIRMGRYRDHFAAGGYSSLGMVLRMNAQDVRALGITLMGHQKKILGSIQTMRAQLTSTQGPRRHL
T20 sequence (Q13557 whole entry): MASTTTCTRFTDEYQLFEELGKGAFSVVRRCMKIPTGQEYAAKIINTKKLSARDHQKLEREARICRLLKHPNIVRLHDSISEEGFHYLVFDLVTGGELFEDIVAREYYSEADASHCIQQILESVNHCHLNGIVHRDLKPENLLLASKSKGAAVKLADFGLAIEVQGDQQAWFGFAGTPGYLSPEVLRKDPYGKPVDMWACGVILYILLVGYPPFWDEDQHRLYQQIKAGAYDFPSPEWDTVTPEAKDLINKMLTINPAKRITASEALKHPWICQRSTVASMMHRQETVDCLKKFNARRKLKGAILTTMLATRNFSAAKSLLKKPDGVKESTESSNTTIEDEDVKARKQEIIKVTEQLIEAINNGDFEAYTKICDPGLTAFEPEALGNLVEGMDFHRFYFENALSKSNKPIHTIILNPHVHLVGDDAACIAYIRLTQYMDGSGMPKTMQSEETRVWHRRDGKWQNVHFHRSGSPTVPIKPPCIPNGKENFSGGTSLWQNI
T3 sequence (O94804 whole entry): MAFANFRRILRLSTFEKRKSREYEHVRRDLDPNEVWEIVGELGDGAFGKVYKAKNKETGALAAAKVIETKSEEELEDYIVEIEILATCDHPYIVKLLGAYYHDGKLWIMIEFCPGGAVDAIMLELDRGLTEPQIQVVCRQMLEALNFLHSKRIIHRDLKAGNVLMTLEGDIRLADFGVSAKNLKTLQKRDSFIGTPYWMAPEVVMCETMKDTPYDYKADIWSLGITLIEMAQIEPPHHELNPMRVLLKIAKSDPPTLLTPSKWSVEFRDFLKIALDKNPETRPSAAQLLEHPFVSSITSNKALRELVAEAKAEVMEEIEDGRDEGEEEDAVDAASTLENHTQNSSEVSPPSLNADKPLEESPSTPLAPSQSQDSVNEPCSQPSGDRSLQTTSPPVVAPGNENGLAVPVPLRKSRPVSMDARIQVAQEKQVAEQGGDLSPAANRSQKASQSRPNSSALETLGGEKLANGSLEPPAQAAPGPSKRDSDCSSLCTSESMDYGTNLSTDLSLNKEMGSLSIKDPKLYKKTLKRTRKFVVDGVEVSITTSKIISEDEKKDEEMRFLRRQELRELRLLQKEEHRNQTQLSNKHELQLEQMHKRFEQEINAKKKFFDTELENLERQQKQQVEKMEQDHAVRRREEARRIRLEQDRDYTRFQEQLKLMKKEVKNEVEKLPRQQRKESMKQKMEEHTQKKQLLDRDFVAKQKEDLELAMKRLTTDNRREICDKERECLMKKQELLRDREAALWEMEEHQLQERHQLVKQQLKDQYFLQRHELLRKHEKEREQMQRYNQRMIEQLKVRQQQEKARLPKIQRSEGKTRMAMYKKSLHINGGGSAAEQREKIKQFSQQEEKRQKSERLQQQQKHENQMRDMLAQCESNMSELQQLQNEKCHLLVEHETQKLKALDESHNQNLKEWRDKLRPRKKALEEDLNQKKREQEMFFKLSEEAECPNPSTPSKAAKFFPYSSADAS
T14 sequence (P50750 whole entry): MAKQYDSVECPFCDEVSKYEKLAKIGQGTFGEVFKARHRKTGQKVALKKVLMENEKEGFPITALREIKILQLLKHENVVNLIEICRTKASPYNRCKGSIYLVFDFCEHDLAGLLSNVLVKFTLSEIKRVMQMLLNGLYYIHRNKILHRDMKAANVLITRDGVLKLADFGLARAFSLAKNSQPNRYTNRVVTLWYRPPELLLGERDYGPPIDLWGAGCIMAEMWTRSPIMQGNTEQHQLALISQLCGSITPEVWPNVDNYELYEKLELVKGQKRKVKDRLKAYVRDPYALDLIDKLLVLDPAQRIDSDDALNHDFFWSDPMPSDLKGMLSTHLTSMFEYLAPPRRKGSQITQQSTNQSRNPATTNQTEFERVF

CN(C)C(=O)c1cc2cnc(Nc3ccc(-c4csc5c(=O)cc(N6CCOCC6)oc45)cc3)nc2n1C1CCCC1 [SRX3177]
remaining binding at 1 µM [1]: 100%
remaining binding at 1 µM [2]: 100%
remaining binding at 1 µM [3]: 100%
Percent Control [4]: 58
remaining binding at 1 µM ([4]; read-out: Percent Control): 72%
remaining binding at 1 µM [5]: 72%
remaining binding at 1 µM [6]: 76%
remaining binding at 1 µM [7]: 58%
remaining binding at 1 µM [8]: 79%
remaining binding at 1 µM [9]: 85%
remaining binding at 1 µM [10]: 92%
remaining binding at 1 µM [11]: 87%
remaining binding at 1 µM [12]: 8.9%
remaining binding at 1 µM [13]: 100%
remaining binding at 1 µM [14]: 2.4%
remaining binding at 1 µM ([15]; RSK2(Kin.Dom.1-N-terminal) (RPS6KA3)): 80%
remaining binding at 1 µM ([15]; RSK2(Kin.Dom.2-C-terminal) (RPS6KA3)): 100%
remaining binding at 1 µM [16]: 96%
remaining binding at 1 µM [17]: 98%
remaining binding at 1 µM [18]: 69%
remaining binding at 1 µM [19]: 96%
remaining binding at 1 µM [20]: 65%
remaining binding at 1 µM [21]: 51%
remaining binding at 1 µM [22]: 100%
remaining binding at 1 µM [23]: 40%
remaining binding at 1 µM [24]: 99%
remaining binding at 1 µM [25]: 99%
remaining binding at 1 µM [26]: 43%
remaining binding at 1 µM [27]: 100%
remaining binding at 1 µM [28]: 45%
remaining binding at 1 µM [29]: 16%
remaining binding at 1 µM [30]: 100%
remaining binding at 1 µM [31]: 2.4%
remaining binding at 1 µM [32]: 93%
